Source: patent publication US20240293551A1, “USE OF ST-TYPE LIPID COMPOUNDS IN PREPARATION OF NUCLEIC ACID DELIVERY REAGENT AND RELATED PRODUCT” (INSTITUTE OF BASIC MEDICAL SCIENCES CHINESE ACADEMY OF …, priority 2021, published 2024)

Test system: PGY-sRNA-26
Test: In vivo delivery study of lipid-nucleic acid mixture (oral gavage, RT-qPCR of PGY-sRNA-26 in tissues)
Set-up: species or system mouse
Conditions: for delivery efficacy over each tissue and blood tested (broad-spectrum delivery): all tissues and blood tested; for oral delivery of single-stranded sRNA nucleic acids into mouse intestinal tissue: intestine
Method in brief: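 C57BL/6 male mice (~6 weeks, 20-24 g), fasted 12 h, were gavaged with 10 nmol 3′-methylated PGY-sRNA-26 mixed with 100 μg lipid (heated 90° C. 15 min), versus saline or free sRNA (n=4 each). After 12 h, blood and tissues were Trizol-extracted; sRNA quantified by stem-loop RT-qPCR relative to U6.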

[1] = C57BL/6 mice, gavage, 100 μg lipid: 10 nmol PGY-sRNA-26, 12 hours
[2] = C57BL/6 mice, gavage, 100 μg lipid: 10 nmol PGY-sRNA-26, 12 hours, blood
[3] = C57BL/6 mice, gavage, 100 μg lipid: 10 nmol PGY-sRNA-26, 12 hours, femur

SMILES | delivery efficacy over each tissue and blood tested (broad-spectrum delivery) [1] | oral delivery of single-stranded sRNA nucleic acids into mouse blood [2] | oral delivery of single-stranded sRNA nucleic acids into mouse brain tissue [1] | oral delivery of single-stranded sRNA nucleic acids into mouse femur [3] | oral delivery of single-stranded sRNA nucleic acids into mouse heart tissue [1] | oral delivery of single-stranded sRNA nucleic acids into mouse intestinal tissue [1] | oral delivery of single-stranded sRNA nucleic acids into mouse kidney tissue [1] | oral delivery of single-stranded sRNA nucleic acids into mouse liver tissue [1] | oral delivery of single-stranded sRNA nucleic acids into mouse lung tissue [1] | oral delivery of single-stranded sRNA nucleic acids into mouse spleen tissue [1] | oral delivery of single-stranded sRNA nucleic acids into mouse stomach tissue [1] | oral delivery of single-stranded sRNA nucleic acids into mouse blood (mouse, in vivo, po) | oral delivery of single-stranded sRNA nucleic acids into mouse femur (mouse, in vivo, po)
C[C@]12CC[C@H]3[C@@H](CCC4=CC(=O)CC[C@@]43CO)[C@@H]1CCC2=O [Lipid 567, 19-hydroxy-androstane-4-ene-3,17-dione (8R,9S,10S,13S,14S)-10-(hydroxymethyl)-13-methyl-2,6,7,8,9,11,12,14,15,16-decahydro-1H-cyclopenta[a]phenanthrene-3,17-dione] | exhibited the best delivery efficacy | can effectively orally deliver | can effectively orally deliver | can effectively orally deliver | can effectively orally deliver | can effectively orally deliver | can effectively orally deliver | can effectively orally deliver | can effectively orally deliver | can effectively orally deliver | can effectively orally deliver | – | –
CCC(=O)O[C@H]1CC[C@H]2[C@@H]3CCC4=CC(=O)CC[C@]4(C)[C@H]3CC[C@]12C [Lipid 568] | exhibited the best delivery efficacy | can effectively orally deliver | can effectively orally deliver | can effectively orally deliver | can effectively orally deliver | can effectively orally deliver | can effectively orally deliver | can effectively orally deliver | can effectively orally deliver | can effectively orally deliver | can effectively orally deliver | – | –
C=C1/C(=C\C=C2/CCC[C@]3(C)[C@@H]([C@H](C)/C=C/[C@H](C)C(C)C)CC[C@@H]23)C[C@@H](O)C[C@@H]1O [Lipid 569] | exhibited the best delivery efficacy | can effectively orally deliver | can effectively orally deliver | can effectively orally deliver | can effectively orally deliver | can effectively orally deliver | can effectively orally deliver | can effectively orally deliver | can effectively orally deliver | can effectively orally deliver | can effectively orally deliver | – | –
C=C1/C(=C\C=C2/CCC[C@]3(C)[C@@H]([C@H](C)/C=C/[C@H](C)C(C)(C)O)CC[C@@H]23)C[C@@H](O)C[C@@H]1O [Lipid 570] | exhibited the best delivery efficacy | can effectively orally deliver | can effectively orally deliver | can effectively orally deliver | can effectively orally deliver | can effectively orally deliver | can effectively orally deliver | can effectively orally deliver | can effectively orally deliver | can effectively orally deliver | can effectively orally deliver | – | –
C=C1CC[C@H](O)C/C1=C/C=C1\CCC[C@]2(C)[C@@H]([C@H](C)CCCC(C)(C)O)CC[C@@H]12 [Lipid 571] | – | can effectively orally deliver | can effectively orally deliver | can effectively orally deliver | can effectively orally deliver | can effectively orally deliver | can effectively orally deliver | can effectively orally deliver | can effectively orally deliver | can effectively orally deliver | can effectively orally deliver | – | –
CC(=O)[C@H]1CC[C@H]2[C@@H]3CCC4=CC(=O)CC[C@]4(C)[C@H]3CC[C@]12C [Lipid 575] | exhibited the best delivery efficacy | can effectively orally deliver | can effectively orally deliver | can effectively orally deliver | can effectively orally deliver | can effectively orally deliver | can effectively orally deliver | can effectively orally deliver | can effectively orally deliver | can effectively orally deliver | can effectively orally deliver | – | –
C[C@H](CCC(=O)O)[C@H]1CC[C@H]2[C@@H]3CC[C@@H]4C[C@H](O)CC[C@]4(C)[C@H]3CC[C@]12C [Lipid 577] | – | can effectively orally deliver | can effectively orally deliver | can effectively orally deliver | can effectively orally deliver | can effectively orally deliver | can effectively orally deliver | can effectively orally deliver | can effectively orally deliver | – | can effectively orally deliver | – | –
C[C@]12CC[C@H]3[C@@H](CCC4=CC(=O)CC[C@@]43C)[C@@H]1CC[C@@H]2O [Lipid 579] | – | – | – | – | – | – | – | – | – | – | – | can effectively orally deliver | can effectively orally deliver
